Data set [1] has as its system Hep2 cells. The settings on record: 1 h, after filtration, no virus.
Experimental: A parallel test where the same procedure was carried out in the absence of virus was included to determine any residual cytotoxic effect of the formulation on the assay cells.
Data set [2] has as its system Rhinovirus 60, 2268-CV37. Kind of data set: TCID50 assay after 1 h incubation of virus with 1% LTX-109 (Example 6). Format: cell-based.
Data set [3] relates to Haemophilus influenzae. The protocol:
(§1) Bacterial and fungal isolates used in this study were from various sources worldwide stored at GR Micro Ltd. and maintained, with minimal sub-culture, deep frozen at −70° C. as a dense suspension in a high protein matrix of undiluted horse serum.
(§2) Minimum inhibitory concentration (MIC) of LTX-109 was determined using the following microbroth dilution methods for antimicrobial susceptibility testing published by the Clinical and Laboratory Standards Institute (CLSI, formerly NCCLS): • M7-A6 Vol. 23 No. 2 Jan. 2003 Methods for Dilution Antimicrobial Susceptibility Tests for Bacteria that Grow Aerobically; Approved Standard-Sixth Edition. National Committee for Clinical Laboratory Standards. • M100-S15 Vol. 25 No 1. January 2005 Performance Standards for Antimicrobial Susceptibility Testing; Fifteenth Informational Supplement. Clinical and Laboratory Standards Institute • M11-A6 Vol. 24 No. 2 Methods for Antimicrobial Susceptibility Testing of Anaerobic Bacteria; Approved Standard-Sixth Edition. National Committee for Clinical Laboratory Standards. • M27-A2 Vol. 22 No. 15 Reference Method for Broth Dilution Antifungal Susceptibility Testing of Yeasts; Approved Standard-Second Edition. National Committee for Clinical Laboratory Standards. • M38-A Vol. 22 No. 16 Reference Method for Broth Dilution Antifungal Susceptibility Testing of Filamentous Fungi; Approved Standard. National Committee for Clinical Laboratory Standards.
MIC estimations were performed using wet plates, containing the LTX-109, prepared at GR Micro Ltd.
Following normal practice all the plates containing Mueller-Hinton broth were prepared in advance, frozen at −70° C. on the day of preparation and defrosted on the day of use. Fungal, Haemophilus and anaerobic MIC determinations were all performed in plates prepared on the same day.

For data set [4], the system named is Mycoplasma pneumoniae. The protocol: Two library strains of Mycoplasma pneumoniae were used. These strains were stored at GR Micro Ltd. and maintained, with minimal sub-culture, deep frozen at −70° C. as a dense suspension in a high protein matrix of undiluted horse serum.
MIC determination was carried out using a broth microdilution method in Mycoplasma Broth Base (Oxoid Ltd, Hampshire, UK), prepared according to the manufacturer's instructions.

Data set [5] deals with Influenza A virus (IAV; A/WSN/33). Format: cell-based.
Data set [6] relates to Pseudomonas aeruginosa. The settings on record: Pseudomonas aeruginosa - ATCC 27853 - antibiotic-susceptible type strain; three replicates (frozen and fresh MHB plates). The protocol:
as §1
as §2, with “Standard-Second Edition. […] National Committee” for “Standard-Second Edition. National Committee”, “Laboratory Standards.” for “Laboratory Standards. • M38-A Vol. 22 No. 16 Reference Method for Broth Dilution Antifungal Susceptibility Testing of Filamentous Fungi; Approved Standard. National Committee for Clinical Laboratory Standards.”
MIC estimations were performed using wet plates, containing the LTX-109, prepared at GR Micro Ltd. […]

≈ marks a conversion by molar mass, not a printed value. Where “and” joins values, the source holds several entries; their conditions need not be identical. Equal values may be shown once. Read-outs that look alike come from different tables or passages of the source.

Consider `CC(C)(C)c1cc(C(C)(C)C)c2[nH]c(C(C)(C)C)c(CC(NC(=O)C(N)CCCNC(=N)N)C(=O)NC(CCCNC(=N)N)C(=O)NCCc3ccccc3)c2c1` (stereo not shown) [LTX-109], for which the “With Filtration (cytotoxicity)” value in data set [1] (0.1% LTX-109 (w/v)) is on record as “No cytotoxicity”; in data set [1] (1% LTX-109 (w/v)) it was “Up to 10^−1”. Also, the Log decrease in data set [2] (Rhinovirus, 1% LTX-109 or 0.25% SDS, 1 hour, compared to PBS control) is 1.9 log. Besides, the Percentage in data set [2] (decrease in Rhinovirus infectivity, 1% LTX-109 or 0.25% SDS, 1 hour, compared to PBS control) is 98.89%; in data set [5], 99.9% and 99.969%. The Log in data set [2] (log of Rhinovirus titre after 1 hour with 1% LTX-109 or 0.25% SDS) is 3.7; in data set [5] it was 1.20. Besides, the MIC amounted to 8 µg/mL (≈ 10.2 µM) in data set [3] (Haemophilus influenzae - β-lactamase negative clinical isolate); 8 µg/mL (≈ 10.2 µM) in data set [3] (Haemophilus influenzae - β-lactamase negative, ampicillin resistant); 8 µg/mL (≈ 10.2 µM) in data set [3] (Haemophilus influenzae - β-lactamase positive clinical isolate); 32 µg/mL (≈ 40.6 µM) in data set [4] (one of the library strains of Mycoplasma pneumoniae); 16 µg/mL (≈ 20.3 µM) in data set [4] (the other of the library strains of Mycoplasma pneumoniae); 8 µg/mL (≈ 10.2 µM) in data set [6].

Source of the values: patent publication US20240148819A1, “COMPOUNDS FOR USE IN THE TREATMENT OF SINUSITIS, PNEUMONIA OR OTITIS” (PHARMA HOLDINGS AS, priority 2021, published 2024).
